Consider one substance from patent publication US10139394B2, “Method for controlling cancer metastasis or cancer cell migration by modulating the cellular level of lysyl tRNA synthetase” (Medicinal Bioconvergence Research Center, priority 2008, dated 2018).

The subject of one assay is phosphorylation of KRS. As to the kind of experiment: Laminin-induced phosphorylation of Myc-KRS, immunoprecipitation and immunoblot with anti-p-Thr, -Ser, -Tyr antibodies. It is filed as cell-based, human. The note with it: Myc-KRS transfected A549 cells; laminin treatment; FIG. 10. On the procedure:
(§1) In FIG. 7, A549 cells were treated with laminin (10 ug/ml) and the level of 67LR, 37LRP and KRS was determined by Western blotting at the indicated times. Hsp90 and Cadherin were used as markers for cytoplasm and membrane, respectively. In FIG. 8, A549 cells untreated or treated with laminin for 1 h were subjected to immunofluorescence staining with anti-67LR (MLuC5, Santacruz, sc-59732) (red) and -KRS antibodies (green). In FIG. 9, A549 cells were treated with U73122 (U), staurosporin (ST) and LY294002 (LY) that inhibit PLC-gamma, PKC and PI3K, respectively, for 3 hr, then with laminin for 1 hr and checked how these kinase inhibitors would affect the membrane and cytoplasmic level of 67LR and KRS. In FIG. 10, A549 cells were transfected with Myc-KRS and incubated for 24 h. The cells were treated with the indicated chemicals and then with laminin as above. Myc-KRS was immunoprecipitated, and immunoblotted with anti-p-Thr, -Ser, and -Tyr antibodies. In FIG. 11, A549 cells were transfected with Myc-KRS and cultivated for 24 hr. The transfectants were pre-treated with LY294002 for 3 hr and then treated with laminin for 1 h. Myc-KRS was immunoprecipitated and co-precipitation of 67LR was determined by Western blotting. […] EPRS (glutamyl-prolyl-tRNA synthetase) was immunoprecipitated with its specific antibody (AbCam), and co-immunoprecipitation of KRS was determined by Western blotting (upper). […]
(A western blot detects proteins with antibodies after separation by electrophoresis.)

A further assay deals with KRS and EPRS. Briefly: Co-immunoprecipitation of KRS with EPRS (multi-ARS complex). In kind it is cell-based. The note with it: A549 cells; absence of LY compound; FIG. 12. On the procedure:
as §1

The next assay relates to A549 cells. Briefly: Cell migration assay in Transwell chamber. It is filed as cell-based. The following applies: laminin 10 μg/ml in lower well, 6 hr, in average, FIG. 24 and 18. On the procedure: In FIG. 18, A549 cells were transfected with the indicated plasmids, incubated in the absence and presence of laminin and their effect on cell migration was determined by measuring the migrated cells in transwell chamber as described. The numbers of the cells passed through the membrane were counted and shown in each panel. The experiments were performed three times. In FIG. 19, the cells treated as above were used to determine MMP-2 activity and level by zymography and Western blotting, respectively. In FIG. 20, Breast carcinoma 4T-1 cells were transfected with the indicated siRNA and subcutaneously injected to the back of Balb/C mice. After 21 days, mouse lungs were isolated and tumor nodules over 1 mm in diameter were counted. In FIG. 21, two different 4T-1 cells stably expressing exogenously introduced KRS (KRS-1 and -2) were also inoculated as above and the tumor nodules were counted 30 days after injection. […]
FIGS. 24 to 27 show effect of intracellular and extracellular KRS on cell migration, protein synthesis and cell cycle. In FIG. 24, Migration of A549 cells incubated in the absence of laminin was determined was determined by measuring the migrated cells in Transwell chamber. […] After 6 hr of incubation, the migrant were counted. […] In FIG. 27, A549 cells transfected as indicated were fixed and stained with propidium iodide, and their cell cycle was determined by flow cytometry. […]

With “laminin: laminin (Engelbreth-Holm-Swarm murine sarcoma) from Sigma”, the “phosphorylated KRS at threonine and serine” value in the assay on phosphorylation of KRS is “increased”. In addition, the “association of KRS with EPRS” value in the assay with KRS and EPRS is on record as “decreased”. Moreover, the “Migration of the control cells, enhancement” value in the assay on A549 cells is “about 6 fold”.
